{"source": "paper PMC10247507", "about": "(Journal of immunology (Baltimore, Md. : 1950), 2023)", "tested_on": "naïve FluNP CD4 T cells", "test": "Activation of naïve FluNP CD4 T cells by peptide-pulsed BMDC in vitro", "assay_type": "cell-based, mouse", "conditions": "CD69, CD25, Nur77 assays, 2d in vitro"}
{"substance": "NP311–325: immunodominant, highly conserved IAV nucleoprotein (NP) epitope presented by I-A^b; parent peptide of the panel (QVYSLIRPNENPAHK)", "values": [{"measurement": "dose for peak responses, lower than the middle peptides (A7, K5)", "result": 100, "unit": "fold"}]}
